According to the supplement of paper PMC10307832:

How the values were obtained:
Assay in all cases: relative viability (nuclei count vs DMSO), 5 days (fraction); higher = more cells survive
201T = system: 201T
In short: (§1)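 Medians of duplicate plates are given as relative viability. That measure is the nuclei count in treated wells divided by the count in vehicle wells. Counts were taken on 4× images of lung cancer cell lines in 1536-well plates, 5 days after pin-tool dosing the day after seeding with one drug alone or a fixed anchor-drug dose plus five library-drug doses (not always all listed) in √10 steps.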

COR-L23 = system: COR-L23
In short: as §1

H3255 = system: H3255
In short: as §1

HARA = system: HARA
In short: as §1

HCC-366 = system: HCC-366
In short: as §1

HCC-78 = system: HCC-78
In short: as §1

LU99A = system: LU99A
In short: as §1

NCI-H1650 = system: NCI-H1650
In short: as §1

NCI-H1651 = system: NCI-H1651
In short: as §1

NCI-H1755 = system: NCI-H1755
In short: as §1

NCI-H1793 = system: NCI-H1793
In short: as §1

NCI-H2085 = system: NCI-H2085
In short: as §1

NCI-H2087 = system: NCI-H2087
In short: as §1

NCI-H23 = system: NCI-H23
In short: as §1

NCI-H3122 = system: NCI-H3122
In short: as §1

NCI-H322M = system: NCI-H322M
In short: as §1

NCI-H358 = system: NCI-H358
In short: as §1

NCI-H460 = system: NCI-H460
In short: as §1

NCI-H522 = system: NCI-H522
In short: as §1

NCI-H596 = system: NCI-H596
In short: as §1

NCI-H650 = system: NCI-H650
In short: as §1

PC-3 [JPC-3] = system: PC-3 [JPC-3]
In short: as §1

SK-LU-1 = system: SK-LU-1
In short: as §1

Compound: Cc1csc(=NC2CCCCC2)n1/N=C/c1ccc(O)c(O)c1O [MIM1] + O=C(CCCCCCC(=O)Nc1ccccc1)NO [Vorinostat] (partner 1 µM)
- relative viability (201T; first compound 0.2 µM): 0.974
- relative viability (201T; first compound 0.6325 µM): 0.952
- relative viability (201T; first compound 2 µM): 0.935
- relative viability (201T; first compound 6.325 µM): 0.528
- relative viability (201T; first compound 20 µM): 0.3
- relative viability (COR-L23; first compound 0.2 µM): 0.42
- relative viability (COR-L23; first compound 0.6325 µM): 0.441
- relative viability (COR-L23; first compound 2 µM): 0.371
- relative viability (COR-L23; first compound 6.325 µM): 0.314
- relative viability (COR-L23; first compound 20 µM): 0.162
- relative viability (H3255; first compound 0.2 µM): 0.776
- relative viability (H3255; first compound 0.6325 µM): 0.901
- relative viability (H3255; first compound 2 µM): 0.759
- relative viability (H3255; first compound 6.325 µM): 0.67
- relative viability (H3255; first compound 20 µM): 0.321
- relative viability (HARA; first compound 0.2 µM): 0.523
- relative viability (HARA; first compound 0.6325 µM): 0.467
- relative viability (HARA; first compound 2 µM): 0.56
- relative viability (HARA; first compound 6.325 µM): 0.511
- relative viability (HARA; first compound 20 µM): 0.0696
- relative viability (HCC-366; first compound 0.2 µM): 0.33
- relative viability (HCC-366; first compound 2 µM): 0.243
- relative viability (HCC-366; first compound 6.325 µM): 0.0699
- relative viability (HCC-366; first compound 20 µM): 0.0271
- relative viability (HCC-78; first compound 0.2 µM): 0.452
- relative viability (HCC-78; first compound 2 µM): 0.38
- relative viability (HCC-78; first compound 6.325 µM): 0.424
- relative viability (HCC-78; first compound 20 µM): 0.438
- relative viability (LU99A; first compound 0.2 µM): 0.515
- relative viability (LU99A; first compound 0.6325 µM): 0.435
- relative viability (LU99A; first compound 2 µM): 0.463
- relative viability (LU99A; first compound 6.325 µM): 0.387
- relative viability (LU99A; first compound 20 µM): 0.119
- relative viability (NCI-H1650; first compound 0.2 µM): 0.617
- relative viability (NCI-H1650; first compound 0.6325 µM): 0.562
- relative viability (NCI-H1650; first compound 2 µM): 0.451
- relative viability (NCI-H1650; first compound 6.325 µM): 0.119
- relative viability (NCI-H1650; first compound 20 µM): 0.179
- relative viability (NCI-H1651; first compound 0.2 µM): 0.509
- relative viability (NCI-H1651; first compound 0.6325 µM): 0.408
- relative viability (NCI-H1651; first compound 2 µM): 0.519
- relative viability (NCI-H1651; first compound 6.325 µM): 0.395
- relative viability (NCI-H1651; first compound 20 µM): 0.51
- relative viability (NCI-H1755; first compound 0.2 µM): 0.708
- relative viability (NCI-H1755; first compound 0.6325 µM): 0.65
- relative viability (NCI-H1755; first compound 2 µM): 0.792
- relative viability (NCI-H1755; first compound 6.325 µM): 0.671
- relative viability (NCI-H1755; first compound 20 µM): 0.296
- relative viability (NCI-H1793; first compound 0.2 µM): 0.783
- relative viability (NCI-H1793; first compound 2 µM): 0.732
- relative viability (NCI-H1793; first compound 6.325 µM): 0.649
- relative viability (NCI-H1793; first compound 20 µM): 0.553
- relative viability (NCI-H2085; first compound 0.2 µM): 0.765
- relative viability (NCI-H2085; first compound 0.6325 µM): 0.728
- relative viability (NCI-H2085; first compound 2 µM): 0.763
- relative viability (NCI-H2085; first compound 6.325 µM): 0.547
- relative viability (NCI-H2085; first compound 20 µM): 0.563
- relative viability (NCI-H2087; first compound 0.2 µM): 0.68
- relative viability (NCI-H2087; first compound 0.6325 µM): 0.536
- relative viability (NCI-H2087; first compound 2 µM): 0.877
- relative viability (NCI-H2087; first compound 6.325 µM): 0.596
- relative viability (NCI-H2087; first compound 20 µM): 0.497
- relative viability (NCI-H23; first compound 0.2 µM): 0.55
- relative viability (NCI-H23; first compound 0.6325 µM): 0.277
- relative viability (NCI-H23; first compound 2 µM): 0.478
- relative viability (NCI-H23; first compound 6.325 µM): 0.19
- relative viability (NCI-H23; first compound 20 µM): 0.123
- relative viability (NCI-H3122; first compound 0.2 µM): 0.959
- relative viability (NCI-H3122; first compound 0.6325 µM): 0.894
- relative viability (NCI-H3122; first compound 2 µM): 1.02
- relative viability (NCI-H3122; first compound 6.325 µM): 0.618
- relative viability (NCI-H3122; first compound 20 µM): 0.127
- relative viability (NCI-H322M; first compound 0.2 µM): 0.889
- relative viability (NCI-H322M; first compound 0.6325 µM): 0.917
- relative viability (NCI-H322M; first compound 2 µM): 0.789
- relative viability (NCI-H322M; first compound 6.325 µM): 0.733
- relative viability (NCI-H322M; first compound 20 µM): 0.418
- relative viability (NCI-H358; first compound 0.2 µM): 0.741
- relative viability (NCI-H358; first compound 0.6325 µM): 0.628
- relative viability (NCI-H358; first compound 2 µM): 0.678
- relative viability (NCI-H358; first compound 6.325 µM): 0.235
- relative viability (NCI-H358; first compound 20 µM): 0.169
- relative viability (NCI-H460; first compound 0.2 µM): 0.703
- relative viability (NCI-H460; first compound 0.6325 µM): 0.746
- relative viability (NCI-H460; first compound 2 µM): 0.411
- relative viability (NCI-H460; first compound 6.325 µM): 0.117
- relative viability (NCI-H460; first compound 20 µM): 0.0234
- relative viability (NCI-H522; first compound 0.2 µM): 0.858
- relative viability (NCI-H522; first compound 0.6325 µM): 0.916
- relative viability (NCI-H522; first compound 2 µM): 0.91
- relative viability (NCI-H522; first compound 6.325 µM): 0.891
- relative viability (NCI-H522; first compound 20 µM): 0.345
- relative viability (NCI-H596; first compound 0.2 µM): 0.719
- relative viability (NCI-H596; first compound 0.6325 µM): 0.722
- relative viability (NCI-H596; first compound 2 µM): 0.561
- relative viability (NCI-H596; first compound 6.325 µM): 0.559
- relative viability (NCI-H596; first compound 20 µM): 0.337
- relative viability (NCI-H650; first compound 0.2 µM): 0.481
- relative viability (NCI-H650; first compound 0.6325 µM): 0.257
- relative viability (NCI-H650; first compound 2 µM): 0.402
- relative viability (NCI-H650; first compound 6.325 µM): 0.414
- relative viability (NCI-H650; first compound 20 µM): 0.116
- relative viability (PC-3 [JPC-3]; first compound 0.2 µM): 0.776
- relative viability (PC-3 [JPC-3]; first compound 0.6325 µM): 0.714
- relative viability (PC-3 [JPC-3]; first compound 2 µM): 0.726
- relative viability (PC-3 [JPC-3]; first compound 6.325 µM): 0.657
- relative viability (PC-3 [JPC-3]; first compound 20 µM): 0.376
- relative viability (SK-LU-1; first compound 0.2 µM): 0.764
- relative viability (SK-LU-1; first compound 0.6325 µM): 0.837
- relative viability (SK-LU-1; first compound 2 µM): 0.957
- relative viability (SK-LU-1; first compound 6.325 µM): 0.623
- relative viability (SK-LU-1; first compound 20 µM): 0.393
